The values below come from US20250388605A1, “HETEROBIFUNCTIONAL COMPOUNDS AND METHODS OF TREATING DISEASE” (Halda Therapeutics OpCo, Inc., priority 2022, published 2025).

One experiment deals with VCaP cells. Briefly: Cellular growth inhibition assay for VCaP cells, CellTiter-Glo. The class given is cell-based, human. Particulars: 72 hours. An outline of the steps:
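GI50 values come from four-parameter curve fits of luminescence data normalized to a zero baseline. Compound, in medium with 0.5% DMSO, was added one day after plating and left for 72 h before CellTiter-Glo 2.0 addition.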

In experiment [1] the test system is T-Rex 293 cell line SC3 cells having increased expression of androgen receptor protein due to exposure to doxycycline. Briefly: Cellular growth inhibition, T-Rex 293 SC3 cells with doxycycline (increased androgen receptor expression), CellTiter-Glo. The format is cell-based. Particulars: T-Rex 293 SC3 cells with 10 ng/mL doxycycline (increased androgen receptor expression), 72 hours, CellTiter-Glo 2.0. The gist of the method: (§1)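 Doxycycline (10 ng/mL) was either included or omitted to toggle wild-type androgen receptor expression in SC3 cells, a T-Rex 293 clone, grown in stripped-serum, phenol red-free medium. After 72 hours with compound, viable cells were quantified by CellTiter-Glo 2.0.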

Experiment [2] relates to T-Rex 293 cell line SC3 cells lacking increased expression of androgen receptor protein. As to the kind of experiment: Cellular growth inhibition, T-Rex 293 SC3 cells without doxycycline (no increased androgen receptor expression), CellTiter-Glo. The format is cell-based. Particulars: T-Rex 293 SC3 cells not exposed to doxycycline (no increased androgen receptor expression), 72 hours. The gist of the method: as §1

In a further experiment the test system is T47D cells. Briefly: Cellular Growth Inhibition Assay for T47D Cells (CellTiter-Glo). The format is cell-based, human. The following applies: 72 hours. An outline of the steps:
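GI50 values derive from four-parameter regression of CellTiter-Glo 2.0 luminescence, using zero luminescence as baseline. Human breast cancer T47D cells (3000/well; DMEM, 10% FBS, 0.2 units/mL insulin) were exposed for 72 h to compound dilutions at 0.5% DMSO, with dosing starting 24 h after seeding.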
(In general: In ATP-based viability assays light output follows the ATP content of the culture.)

Some results are limits rather than exact numbers.

On to `CCS(=O)(=O)c1ccc(OC(CCCCN2CCN(c3ncc(C(=O)NC4C(C)(C)C(Oc5ccc(C#N)c(Cl)c5)C4(C)C)cn3)CC2)C2CC2)c(-c2cn(C)c(=O)c3[nH]ccc23)c1` (centres unmarked) [Compound I-223, N-[3-(3-chloro-4-cyano-phenoxy)-2,2,4,4-tetramethyl-cyclobutyl]-2-[4-[5-cyclopropyl-5-[4-ethylsulfonyl-2-(6-methyl-7-oxo-1H-pyrrolo[2,3-c]pyridin-4-yl)phenoxy]pentyl]piperazin-1-yl]pyrimidine-5-carboxamide], for which the GI50 (with VCaP cells (Homo sapiens); in experiment [1]; in experiment [2]; in the experiment with T47D cells (Homo sapiens)) was < 500 nM each time.
Turning to `Cn1cc(-c2cc(C(C)(C)O)ccc2Oc2ccc(N3CC(CC4CN(c5ncc(C(=O)N[C@H]6C(C)(C)[C@H](Oc7ccc(C#N)c(Cl)c7)C6(C)C)cn5)C4)C3)cc2)c2cc[nH]c2c1=O` [Compound I-280], the 50% growth inhibitory concentration (GI50) (usually the concentration that inhibits growth by half) with VCaP cells (Homo sapiens) is < 500 nM; in experiment [1], < 500 nM; in experiment [2], 1500 to 3000 nM; with T47D cells (Homo sapiens) it was < 500 nM.
`Cn1cc(-c2cc(C(C)(C)O)ccc2Oc2cccc(N3CC4(CN(c5ncc(C(=O)N[C@H]6C(C)(C)[C@H](Oc7ccc(C#N)c(Cl)c7)C6(C)C)cn5)CCO4)C3)c2F)c2cc[nH]c2c1=O` [Compound I-216]: the 50% growth inhibitory concentration (GI50) (in the experiment on VCaP cells (Homo sapiens); in experiment [1]; in experiment [2]; in the experiment with T47D cells (Homo sapiens)) was < 500 nM in each case.
As to `CC(C)c1ccc(Oc2cccc(OCCN3CCN(c4ncc(C(=O)NC5C(C)(C)C(Oc6ccc(C#N)c(Cl)c6)C5(C)C)cn4)CC3)c2)c(-c2cn(C)c(=O)c3[nH]ccc23)c1` (centres unmarked) [Compound I-107, N-[3-(3-chloro-4-cyano-phenoxy)-2,2,4,4-tetramethyl-cyclobutyl]-2-[4-[2-[3-[4-isopropyl-2-(6-methyl-7-oxo-1H-pyrrolo[2,3-c]pyridin-4-yl)phenoxy]phenoxy]ethyl]piperazin-1-yl]pyrimidine-5-carboxamide], the GI50 in the experiment with VCaP cells (Homo sapiens) was > 3000 nM; in experiment [1] it was < 500 nM; in experiment [2], > 3000 nM; in the experiment on T47D cells (Homo sapiens), < 500 nM.
With `Cn1cc(-c2cc(C(C)(C)O)ccc2Oc2ccc(CCC3CCN(c4ncc(C(=O)N[C@H]5C(C)(C)[C@H](Oc6ccc(C#N)c(Cl)c6)C5(C)C)cn4)CC3)cc2)c2cc[nH]c2c1=O` [Compound I-203], the GI50 is 1500 to 3000 nM in the experiment on VCaP cells (Homo sapiens), < 500 nM in experiment [1], > 3000 nM in experiment [2] and 500 to 1500 nM in the experiment with T47D cells (Homo sapiens).
On to `CCS(=O)(=O)c1ccc(Oc2ccc(OCC3CCN(c4ncc5c(n4)CN([C@H]4C(C)(C)[C@H](Cc6ccc(C#N)c(Cl)c6)C4(C)C)C5=O)CC3)cc2)c(-c2cn(C)c(=O)c3[nH]ccc23)c1` [Compound I-220], for which the concentration for 50% growth inhibition (GI50) in the experiment with VCaP cells (Homo sapiens) was > 3000 nM; in experiment [1], < 500 nM; in experiment [2] it was < 500 nM; in the experiment on T47D cells (Homo sapiens), < 500 nM.
Take `Cn1cc(-c2cc(C(C)(C)O)ccc2Oc2ccc(OCC3CCN(c4ncc(C(=O)N[C@H]5C(C)(C)[C@H](Oc6ccc(C#N)c(Cl)c6)C5(C)C)cn4)CC3)cc2)c2cc[nH]c2c1=O` [Compound I-202]: the GI50 in the experiment on VCaP cells (Homo sapiens) was 500 to 1500 nM; in experiment [1], < 500 nM; in experiment [2], 500 to 1500 nM; with T47D cells (Homo sapiens) it was 500 to 1500 nM.
In the case of `Cn1cc(-c2cc(C(C)(C)O)ccc2Oc2cccc(OCCOC3CCN(c4ncc(C(=O)N[C@H]5C(C)(C)[C@H](Oc6ccc(C#N)c(Cl)c6)C5(C)C)cn4)CC3)c2)c2cc[nH]c2c1=O` [Compound I-56, N-((1r, 3r)-3-(3-chloro-4-cyanophenoxy)-2,2,4,4-tetramethylcyclobutyl)-2-(4-(2-(3-(4-(2-hydroxypropan-2-yl)-2-(6-methyl-7-oxo-6,7-dihydro-1H-pyrrolo[2,3-c]pyridin-4-yl)phenoxy)phenoxy)ethoxy)piperidin-1-yl)pyrimidine-5-carboxamide], the concentration for 50% growth inhibition (GI50) (with VCaP cells (Homo sapiens); in experiment [1]; in experiment [2]; in the experiment on T47D cells (Homo sapiens)) was < 500 nM in each case.
Take `CCS(=O)(=O)Nc1ccc(Oc2cccc(N3CC(CC4CN(c5ncc(C(=O)N[C@H]6C(C)(C)[C@H](Oc7ccc(C#N)c(Cl)c7)C6(C)C)cn5)C4)C3)c2)c(-c2cn(C)c(=O)c3[nH]ccc23)c1` [Compound I-158]: the concentration for 50% growth inhibition (GI50) in the experiment with VCaP cells was < 500 nM; in experiment [1], < 500 nM; in experiment [2] it was > 3000 nM; with T47D cells it was < 500 nM.
As to `Cn1cc(-c2cc(C(C)(C)O)ccc2Oc2ccc(OCCN3CCN(c4ncc(C(=O)N[C@H]5C(C)(C)[C@H](Oc6ccc(C#N)c(Cl)c6)C5(C)C)cn4)CC3)cc2)c2cc[nH]c2c1=O` [Compound I-204], the GI50 in the experiment with VCaP cells (Homo sapiens) is < 500 nM; in experiment [1] it was < 500 nM; in experiment [2], 500 to 1500 nM; with T47D cells (Homo sapiens), < 500 nM.
Consider `Cn1cc(-c2cc(C(C)(C)O)ccc2Oc2ccc(N3CC(CC4CCN(c5ncc(C(=O)N[C@H]6C(C)(C)[C@H](Oc7ccc(C#N)c(Cl)c7)C6(C)C)cn5)CC4)C3)cc2)c2cc[nH]c2c1=O` [Compound I-232], for which the concentration for 50% growth inhibition (GI50) is 500 to 1500 nM in the experiment on VCaP cells (Homo sapiens), < 500 nM in experiment [1], > 3000 nM in experiment [2] and < 500 nM in the experiment with T47D cells (Homo sapiens).
Consider `Cn1cc(-c2cc(C(C)(C)O)ccc2Oc2ccc(N3CC(OC4CCN(c5ncc(C(=O)N[C@H]6C(C)(C)[C@H](Oc7ccc(C#N)c(Cl)c7)C6(C)C)cn5)CC4)C3)cc2)c2cc[nH]c2c1=O` [Compound I-219], for which the 50% growth inhibitory concentration (GI50) (in the experiment with VCaP cells (Homo sapiens); in experiment [1]; in experiment [2]; with T47D cells (Homo sapiens)) was < 500 nM throughout.
Consider `Cn1cc(-c2cc(N)ccc2Oc2cccc(OCCC3CCN(c4ncc(C(=O)N[C@H]5C(C)(C)[C@H](Oc6ccc(C#N)c(Cl)c6)C5(C)C)cn4)CC3)c2)c2cc[nH]c2c1=O` [Compound I-101], for which the GI50 is < 500 nM in the experiment on VCaP cells (Homo sapiens), < 500 nM in experiment [1], > 3000 nM in experiment [2] and 500 to 1500 nM in the experiment with T47D cells (Homo sapiens).
For `Cn1cc(-c2ccccc2Oc2cccc(N3CC(N4CCN(c5ncc(C(=O)N[C@H]6C(C)(C)[C@H](Oc7ccc(C#N)c(Cl)c7)C6(C)C)cn5)CC4)C3)c2)c2cc[nH]c2c1=O` [Compound I-90, N-((1r, 3r)-3-(3-chloro-4-cyanophenoxy)-2,2,4,4-tetramethylcyclobutyl)-2-(4-(1-(3-(2-(6-methyl-7-oxo-6,7-dihydro-1H-pyrrolo[2,3-c]pyridin-4-yl)phenoxy)phenyl)azetidin-3-yl)piperazin-1-yl)pyrimidine-5-carboxamide], the concentration for 50% growth inhibition (GI50) is < 500 nM with VCaP cells (Homo sapiens), < 500 nM in experiment [1], > 3000 nM in experiment [2] and 500 to 1500 nM with T47D cells (Homo sapiens).
As to `CN(c1ccc(Oc2cccc(N3CC(N4CCN(c5ncc(C(=O)N[C@H]6C(C)(C)[C@H](Oc7ccc(C#N)c(Cl)c7)C6(C)C)cn5)CC4)C3)c2)c(-c2cn(C)c(=O)c3[nH]ccc23)c1)S(=O)(=O)C1CC1` [Compound I-88, N-((1r, 3r)-3-(3-chloro-4-cyanophenoxy)-2,2,4,4-tetramethylcyclobutyl)-2-(4-(1-(3-(2-(6-methyl-7-oxo-6,7-dihydro-1H-pyrrolo[2,3-c]pyridin-4-yl)-4-(N-methylcyclopropanesulfonamido)phenoxy)phenyl)azetidin-3-yl)piperazin-1-yl)pyrimidine-5-carboxamide], the 50% growth inhibitory concentration (GI50) with VCaP cells (Homo sapiens) is < 500 nM; in experiment [1] it was < 500 nM; in experiment [2] it was > 3000 nM; in the experiment on T47D cells (Homo sapiens), 500 to 1500 nM.
For `Cn1cc(-c2ccccc2Oc2cccc(OCCOC3CCN(c4ncc(C(=O)N[C@H]5C(C)(C)[C@H](Oc6ccc(C#N)c(Cl)c6)C5(C)C)cn4)CC3)c2)c2ccn(C)c2c1=O` [Compound I-137], the 50% growth inhibitory concentration (GI50) in the experiment with VCaP cells (Homo sapiens) is > 3000 nM; in experiment [1], < 500 nM; in experiment [2], < 500 nM; in the experiment with T47D cells (Homo sapiens) it was < 500 nM.
As to `CCS(=O)(=O)Nc1ccc(Oc2cccc(OC3CC(C4CCN(c5ncc(C(=O)N[C@H]6C(C)(C)[C@H](Oc7ccc(C#N)c(Cl)c7)C6(C)C)cn5)CC4)C3)c2)c(-c2cn(C)c(=O)c3[nH]ccc23)c1` (some centres unmarked) [Compound I-104], the 50% growth inhibitory concentration (GI50) with VCaP cells was < 500 nM; in experiment [1] it was < 500 nM; in experiment [2], 500 to 1500 nM; in the experiment with T47D cells, < 500 nM.
For `Cn1cc(-c2cc(C(C)(C)O)ccc2Oc2ccc(CCCC3CC4(C3)CN(c3ncc(C(=O)N[C@H]5C(C)(C)[C@H](Oc6ccc(C#N)c(Cl)c6)C5(C)C)cn3)C4)cc2)c2cc[nH]c2c1=O` [Compound I-268], the 50% growth inhibitory concentration (GI50) is < 500 nM in the experiment with VCaP cells (Homo sapiens), < 500 nM in experiment [1], 500 to 1500 nM in experiment [2] and < 500 nM in the experiment with T47D cells (Homo sapiens).
Take `CCS(=O)(=O)Nc1ccc(Oc2ccc(F)c(OCCOC3CCN(c4ncc(C(=O)N[C@H]5C(C)(C)[C@H](Oc6ccc(C#N)c(Cl)c6)C5(C)C)cn4)CC3)c2F)c(-c2cn(C)c(=O)c3[nH]ccc23)c1` [Compound I-65]: the 50% growth inhibitory concentration (GI50) (in the experiment with VCaP cells (Homo sapiens); in experiment [1]; in experiment [2]; in the experiment on T47D cells (Homo sapiens)) was < 500 nM each time.
Regarding `CN(c1ccc(Oc2ccc(C(C)(C)O)cc2-c2cn(C)c(=O)c3[nH]ccc23)cc1)C1CCN(c2ncc(C(=O)N[C@H]3C(C)(C)[C@H](Oc4ccc(C#N)c(Cl)c4)C3(C)C)cn2)CC1` [Compound I-197], the concentration for 50% growth inhibition (GI50) (in the experiment on VCaP cells (Homo sapiens); in experiment [1]; in experiment [2]; with T47D cells (Homo sapiens)) was < 500 nM throughout.
